Tests used:
[1] = test system: D2; assay: D2 activity in the rabbit ear artery (REA); design: species or system New Zealand rabbit; conditions: electrically stimulated artery rings; agonistic activity at the peak of the effect; cumulative administration
Experimental: Evaluation of the D2 Activity in the Rabbit Ear Artery (REA)
Artery rings were prepared following the method described by Steinsland et al., Science, 1978, 443, 199, modified as follows.
Male New Zealand rabbits (weighing 2.5-3 Kg) were sacrificed by a pentobarbital intravenous injection and bled. The central ear artery was cut into 3 mm-rings. The samples were placed into a 25 ml-bath containing a Krebs solution (mM/l): sodium chloride 118, potassium chloride 4.7, calcium chloride 2.5, magnesium sulphate 1.2, sodium hydrogenocarbonate 25, potassium biphosphate 1.2, glucose 11.1, balanced with oxygen 95%/carbon dioxide 5% and maintained at 35±1° C. The Krebs solution was added with EDTA (10 μM) to present the cathecolamine oxidation, with desipramine (0.1 μM) and corticosterone (30 μM) to stop the neuronal and extraneuronal cathecolamine re-uptake.
The samples were electrically stimulated (10 Hz, 1 msec., 40-80 mA, 500 msec long) at intervals of 5 minutes.
The tested compounds were cumulatively administered.
As reference compounds the reference compounds A and B above were employed.
The agonistic activity was evaluated at the peak of the effect and expressed as potency ratio (EC50 of Ref. A/EC50 of the tested compound), as shown in Table 1.

[2] = test system: D1; assay: D1 activity on the rabbit splenic artery (RSA); conditions: rings contracted with U46619; agonistic activity at the peak of the effect; cumulative administration
Experimental: Evaluation of the D1 Activity on the Rabbit Splenic Artery (RSA)
Artery rings were prepared according to Semeraro et al., Naunyn. Schnied. Arch. Pharmacol., 1990, 342, 539. These were contracted with U46619 (9,11-dideoxy-11α,9α -epoxy-methanprostaglandine F2α) at a submaximal concentration of […]. The tested compounds were cumulatively administered.
As reference compound (S)-N-propyl-N-{6-[2-(2-methoxyphenoxy)-ethylamino]-hexyl}-5,6-dihydroxy-1,2,3,4-tetrahydro-2-naphthylamine dihydrochloride (Ref. A), described in example 6 of the international patent application No. WO 93/19036 was employed. Furthermore a compound of the invention was compared with its corresponding compound having in 5-position a hydroxy group in the place of a hydroxymethyl group. i.e. Compound 22 of the international patent application No. WO 96/08228, (S)-N-propyl-N-{6-[2-(4-methylsulfonylphenyl)-ethylamino]hexyl}-5,6-dihydroxy-1,2,3,4-tetrahydro-2-naphthylamine dihydrobromide (Ref. B). The agonistic activity was evaluated at the peak of the effect and expressed as potency ratio (EC50 of Ref. A/EC50 of the tested compound), as shown in Table 1.

[3] = Hypotensive activity in the anaesthetized dog; assay type: in vivo; conditions: intraduodenal (oral) administration, anaesthetized Beagle dogs; 184 nmoles/kg (compound of the invention), 5.52 nmoles/kg (Ref. B), doses equally active i.v.; 0-360 min
Experimental: Evaluation of the Hypotensive Activity in the Dog
Beagle dogs were anhaestetized with sodium pentobarbital (30 mg/kg i.v.) and a catheter was put in their carotid artery to measure the blood pressure. The catheter was connected with a pressure transductor. The compounds were administered by a catheter put in the duodenum. The effect on the average blood pressure is expressed as average effect with respect to the test time (Eavg =AUC0-360 /minutes) according to what described by Fettner S. H. et al., Eur. J. Clin. Pharmacol., 48:351-359, 1995. As reference compound the reference compound B above (Ref. B) was used. The controls were treated with the vehicle only.
The doses used for the oral administration were selected on the basis of the hypotensive activity data obtained after intravenous administration.

[4] = Absolute oral bioavailability in the dog; assay type: in vivo; conditions: Beagle dogs (4), 1 mg/kg oral by gavage vs 0.2 mg/kg bolus, domperidone pretreatment
Experimental: Evaluation of the Absolute Oral Bioavailability
Four Beagle dogs were intramuscularly treated with 20 mg of domperidone (to avoid emesis) and, after 60 minutes, with a bolus of 0.2 mg/kg of a solution of the compound of example 13. The solution of this compound was prepared by dissolving 10 mg thereof in 100 μl of ethanol and 380 μl of 0.1N HCl, the resulting solution being brought to 10 ml with water. Appropriate volumes of this solution were administered to obtain the desired dose based on the dog weight.
Venous blood sample (3 ml) were collected before drug administration and the following times after dosing: 2.5, 5, 10, 15, 20, 30, 45, 60, 90, 120, 180, 240, 300 and 360 minutes.
After a washout period of 7 days, the same 4 Beagle dogs were intramuscularly treated with 20 mg of domperidone and, after 60 minutes, orally treated by gavage with the compound of Example 13 at the dose of 1 mg/kg. […]
The following pharmacokinetic parameters were determined by non-compartmental analysis from the individual plasma concentration of the compound of Example 13: […]
AUC(()-t), the area under the plasma concentration-time curve between time zero and the last concentration observed, estimated by the linear trapezoidal rule; Absolute bioavailability (F), the percentage of oral dose that is systemically available, calculated according to the following equation: [formula] […]

SMILES	D2 activity (REA), potency ratio (EC50 of Ref. A/EC50 of the tested compound) [1]	D1 activity (RSA), potency ratio (EC50 of Ref. A/EC50 of the tested compound) [2]	average effect on blood pressure (Eavg = AUC0-360/minutes) [3] [mmHg]	Absolute oral bioavailability (F) ([4]; listed as Example 13, 1 mg/kg)	bioavailability ([4]; dog, plasma, po, 1 mg/kg, read-out: Absolute oral bioavailability (F)) [%]
Br.Br.CCCN(CCCCCCNCCc1ccc(S(C)(=O)=O)cc1)[C@H]1CCc2c(ccc(O)c2O)C1 [Ref. B, (S)-N-propyl-N-{6-[2-(4-methylsulfonylphenyl)-ethylamino]hexyl}-5,6-dihydroxy-1,2,3,4-tetrahydro-2-naphthylamine dihydrobromide]	3.3	50	-3.5±3.9		
CCCN(CCCCCCNCCc1ccc(S(C)(=O)=O)cc1)[C@H]1CCc2c(ccc(O)c2CO)C1 [Example 7, (S)-N-propyl-N-(6-(2-(4-methylsulfonylphenyl)ethylamino)hexyl)-5-hydroxymethyl-6-hydroxy-1,2,3,4-tetrahydro-2-naphthylamine]	1.25	2.5	-17.4±3.0	28-43%	38.8 ± 7.2
CCCN(CCCCCCNCCOc1ccccc1OC)[C@H]1CCc2c(ccc(O)c2O)C1.Cl.Cl [Ref. A, (S)-N-propyl-N-{6-[2-(2-methoxyphenoxy)-ethylamino]-hexyl}-5,6-dihydroxy-1,2,3,4-tetrahydro-2-naphthylamine dihydrochloride]	1	1			

Reference: patent US6232348A, “Hydroxymethyl derivatives of 2-amino-1,2,3,4-tetrahydronaphthalene as cardiovascular agent” (Zambon Group S.p.A., priority 1997, dated 2001)
